According to patent US9290457B2, “Substituted dihydropyrimidinones and their use as inhibitors of neutrophil elastase activity” (Boehringer Ingelheim International GmbH, priority 2014, dated 2016):

Assays:
[1] = Metabolic stability with human liver microsomes; type: in vitro ADME; conditions: pooled human liver microsomes, 1 μM compound, 37° C.; for half-life at 1 μM: pH 7.6, read-out: t1/2 INVITRO
Experimental: Assay for the Determination of Metabolic Stability with Human Liver Microsomes
The metabolic degradation of the test compound is assayed at 37° C. with pooled human liver microsomes. The final incubation volume of 100 μl per time point contains TRIS buffer pH 7.6 (0.1 M), magnesium chloride (5 mM), microsomal protein (1 mg/ml) and the test compound at a final concentration of 1 μM. Following a short preincubation period at 37° C., the reactions are initiated by addition of beta-nicotinamide adenine dinucleotide phosphate, reduced form (NADPH, 1 mM) and terminated by transferring an aliquot into acetonitrile after different time points. Additionally, the NADPH-independent degradation is monitored in incubations without NADPH, terminated at the last time point. The [%] remaining test compound after NADPH independent incubation is reflected by the parameter c(control) (metabolic stability). The quenched incubations are pelleted by centrifugation (10,000 g, 5 min) An aliquot of the supernatant is assayed by LC-MS/MS for the amount of parent compound.
The half-life (t1/2 INVITRO) is determined by the slope of the semilogarithmic plot of the concentration-time profile. The intrinsic clearance (CL_[…]) is calculated by considering the amount of protein in the incubation: CL_[…][μl/min/mg protein]=(ln 2/(half-life[min]*protein content[mg/ml]))*1,000.
The half-life (t1/2 INVITRO) values of selected compounds in the metabolic stability assay human liver microsomes described above are listed in Table 3.

[2] = system: Caco-2 cells; test: Drug transport across human Caco-2 cells; type: in vitro ADME; conditions: pH 7.2, 37° C.; for PEAB: apical-to-basal; for PEBA: basal-to-apical
Text: (§1) Assay for Determination of Drug Transport Across Human Caco-2 Cells
(§2) The assay provides information on the potential of a compound to pass the cell membrane, on the extent of oral absorption as well as on whether the compound is actively transported by uptake and/or efflux transporters. For the measurement of permeability across polarized, confluent human cancer colon carcinoma cells 2 (Caco-2) cell monolayers grown on permeable filter supports are used as the in vitro absorption model.
(§3) Apparent permeability coefficients (PE) of the compounds across the Caco-2 monolayers are measured (pH 7.2, 37° C.) in apical-to-basal (AB) (absorptive) and basal-to-apical (BA) (secretory) transport direction. AB permeability (PEAB) represents drug absorption from the intestine into the blood and BA permeability (PEBA) drug secretion from the blood back into the intestine via both passive permeability as well as active transport mechanisms mediated by efflux and uptake transporters that are expressed on the Caco-2 cells. The compounds are assigned to permeability/absorption classes by comparison of the AB permeabilities with the AB permeabilities of reference compounds with known in vitro permeability and oral absorption in the human. Identical or similar permeabilities in both transport directions indicate passive permeation, vectorial permeability points to additional active transport mechanisms. […] Active transport is concentration-dependently saturable.
(§4) Caco-2 cells (1-2*10^5 cells/cm^2 area) are seeded on filter inserts (Costar transwell polycarbonate or PET filters, 0.4 μm pore size) and cultured (DMEM) for 10 to 25 days. Compounds are dissolved in appropriate solvent (like DMSO, 1-20 mM stock solutions). Stock solutions are diluted with HTP-4 buffer (128.13 mM NaCl, 5.36 mM KCl, 1 mM MgSO4, 1.8 mM CaCl2, 4.17 mM NaHCO3, 1.19 mM Na2HPO4x7H2O, 0.41 mM NaH2PO4xH2O, 15 mM HEPES, 20 mM glucose, pH 7.2) to prepare the transport solutions (typically 10 μM compound, final DMSO<=0.5%). The transport solution (TL) is applied to the apical or basolateral donor side for measuring A-B or B-A permeability (3 filter replicates), respectively. The receiver side contains HTP-4 buffer supplemented with 2% BSA. Samples are collected at the start and end of experiment from the donor and at various time intervals for up to 2 hours also from the receiver side for concentration measurement by LC-MS/MS or scintillation counting. Sampled receiver volumes are replaced with fresh receiver solution.
(§5) The apparent permeability coefficients (PEAB and PEBA) of selected compounds in the Caco-2 drug transport assay described above are listed in Table 5.

[3] = Drug transport across human Caco-2 cells; type: in vitro ADME; conditions: human, Caco-2, pH 7.2, 37° C.; for Papp A→B at 10 μM: apical-to-basal, read-out: PEAB; for Papp B→A at 10 μM: basal-to-apical, read-out: PEBA
Text: as §1, §2, §3, §4, §5

[4] = molecular target: cytochrome P450 2C8 (Homo sapiens (Human), UniProt P10632); test: Cytochrome P450 2C8 inhibition; type: in vitro ADME; conditions: human liver microsomes, Amodiaquine deethylation; read-out: IC50 CYP2C8 inhibition
cytochrome P450 2C8, sequence (P10632 whole entry): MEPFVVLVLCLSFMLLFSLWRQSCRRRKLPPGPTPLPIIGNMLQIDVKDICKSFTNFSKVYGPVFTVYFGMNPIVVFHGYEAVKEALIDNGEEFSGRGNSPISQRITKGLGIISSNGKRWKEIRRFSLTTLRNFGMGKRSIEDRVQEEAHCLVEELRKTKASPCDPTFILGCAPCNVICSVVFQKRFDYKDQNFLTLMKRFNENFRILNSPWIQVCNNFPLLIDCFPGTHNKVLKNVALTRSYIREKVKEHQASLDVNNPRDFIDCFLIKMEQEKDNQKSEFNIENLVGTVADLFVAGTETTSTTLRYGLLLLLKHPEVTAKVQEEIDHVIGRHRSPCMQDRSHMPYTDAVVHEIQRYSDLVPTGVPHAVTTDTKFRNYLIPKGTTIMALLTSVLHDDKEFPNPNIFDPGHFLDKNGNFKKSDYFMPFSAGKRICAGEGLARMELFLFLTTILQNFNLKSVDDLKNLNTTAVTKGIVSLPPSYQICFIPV
Experimental: Assay for Determination of Cytochrome P450 2C8 Inhibition
All assays are carried out on a robotic system in 96 well plates. The final incubation volume contains TRIS buffer (0.1 M), MgCl2 (5 mM), human liver microsomes (0.05 mg/ml), Amodiaquine (1 μM) and the test compound at five different concentrations or no compound (high control) in duplicate (e.g. highest concentration 10-50 μM with subsequent serial 1:4 dilutions). Following a short preincubation period, reactions are started with the cofactor (NADPH, 1 mM) and stopped by cooling the incubation down to 8° C. and subsequently by addition of one volume of acetonitrile. An internal standard solution—usually the stable isotope of the formed metabolite—is added after quenching of incubations. Peak area analyte (=metabolite formed) and internal standard is determined by LC-MS/MS. The resulting peak area ratio analyte to internal standard in these incubations is compared to a control activity containing no test compound.
If the inhibition of the reaction is already >50% at the lowest concentration of the test compound, the IC50 is assigned “<lowest concentration tested” (usually <0.4 μM). If the inhibition of the reaction is still <50% at the highest concentration of the test compound, the IC50 is assigned “>highest concentration tested” (usually >50 μM).

[5] = molecular target: hERG (human ether-a-go-go-related gene) potassium channel (Homo sapiens (Human), UniProt Q12809); test: hERG inhibition patch clamp assay; type: cell-based
hERG (human ether-a-go-go-related gene) potassium channel, sequence (Q12809 whole entry): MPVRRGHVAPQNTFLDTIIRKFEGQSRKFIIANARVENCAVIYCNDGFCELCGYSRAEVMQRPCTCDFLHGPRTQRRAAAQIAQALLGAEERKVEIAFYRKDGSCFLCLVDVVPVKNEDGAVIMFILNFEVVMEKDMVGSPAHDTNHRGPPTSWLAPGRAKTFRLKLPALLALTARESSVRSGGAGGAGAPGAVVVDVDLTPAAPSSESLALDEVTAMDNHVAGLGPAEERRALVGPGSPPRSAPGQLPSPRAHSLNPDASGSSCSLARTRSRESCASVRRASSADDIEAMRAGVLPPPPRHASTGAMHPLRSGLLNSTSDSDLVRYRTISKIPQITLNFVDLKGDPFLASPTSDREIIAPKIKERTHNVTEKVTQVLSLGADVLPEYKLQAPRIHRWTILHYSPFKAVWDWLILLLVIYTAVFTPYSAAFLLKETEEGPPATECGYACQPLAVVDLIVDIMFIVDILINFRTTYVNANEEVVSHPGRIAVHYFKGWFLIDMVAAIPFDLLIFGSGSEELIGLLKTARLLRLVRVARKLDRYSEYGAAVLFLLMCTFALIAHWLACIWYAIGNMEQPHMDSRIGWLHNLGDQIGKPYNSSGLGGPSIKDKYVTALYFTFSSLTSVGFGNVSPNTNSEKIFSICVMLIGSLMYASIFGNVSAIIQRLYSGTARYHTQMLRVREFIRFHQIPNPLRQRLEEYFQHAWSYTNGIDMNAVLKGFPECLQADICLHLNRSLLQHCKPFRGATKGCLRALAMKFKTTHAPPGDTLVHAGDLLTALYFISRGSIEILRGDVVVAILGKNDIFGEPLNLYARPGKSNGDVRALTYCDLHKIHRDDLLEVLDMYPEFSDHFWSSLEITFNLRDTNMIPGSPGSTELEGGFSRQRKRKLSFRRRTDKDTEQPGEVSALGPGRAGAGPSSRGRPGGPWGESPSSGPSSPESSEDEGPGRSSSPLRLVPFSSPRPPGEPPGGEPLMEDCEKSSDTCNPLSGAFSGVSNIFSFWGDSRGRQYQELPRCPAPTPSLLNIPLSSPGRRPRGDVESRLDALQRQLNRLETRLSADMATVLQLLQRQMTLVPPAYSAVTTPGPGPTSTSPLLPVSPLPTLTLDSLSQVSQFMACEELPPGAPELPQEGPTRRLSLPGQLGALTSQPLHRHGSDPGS
Text: Calculations: Fold induction=(Enzyme mRNA Compound)/(Enzyme mRNA Solvent Control) Inducer Potency=(Fold Compound)/(Fold Rifampicin)*100 Assay for Determination of hERG Inhibition
The inhibition of the hERG (human ether-a-go-go-related gene) potassium channel can be determined as described in Rast, G., & Guth, B. D., Journal of Pharmacological and Toxicological Methods (2014), http://dx.doi.org/10.1016/j.vasen.2014.08.001.

Row | Structure (SMILES) | t1/2 INVITRO [1] | PEAB [2] | PEBA [2] | half-life at 1 μM [1] | Papp A→B at 10 μM [3] | Papp B→A at 10 μM [3] | IC50 [4] | IC50 [5] | hERG inhibition ([5]; @ 10 μM)
1 | CC(=O)C1=C(C)N(c2cccc(C(F)(F)F)c2)C(=O)N(C)C1c1ccc(C#N)cc1C(=O)NCC#N (centres unmarked) [Example 1.6] | 2.17 h | 10 ×10⁻⁶ cm/s | 81 ×10⁻⁶ cm/s | – | – | – | – | – | –
2 | CC(=O)C1=C(C)N(c2cccc(C(F)(F)F)c2)C(=O)N(C)C1c1ccc(C#N)cc1C(=O)NC1CC1 (centres unmarked) [Example 1.8] | 1.83 h | 44 ×10⁻⁶ cm/s | 74 ×10⁻⁶ cm/s | – | – | – | – | – | –
3 | CC(=O)C1=C(C)N(c2cccc(C(F)(F)F)c2)C(=O)N(C)C1c1ccc(C#N)cc1C(=O)NCCF (centres unmarked) [Example 1.10] | >2.17 h | 39 ×10⁻⁶ cm/s | 78 ×10⁻⁶ cm/s | – | – | – | – | – | –
4 | CC(=O)C1=C(C)N(c2cccc(C(F)(F)F)c2)C(=O)N(C)C1c1ccc(C#N)cc1C(=O)NCC(C)(C)O (centres unmarked) [Example 1.22] | – | – | – | > 2.17 h | 7.8 ×10⁻⁶ cm/s | 81 ×10⁻⁶ cm/s | – | – | –
5 | CC(=O)C1=C(C)N(c2cccc(C(F)(F)F)c2)C(=O)N(C)C1c1ccc(C#N)cc1C(=O)N1CCn2ncnc2C1 (centres unmarked) [Example 1.73] | – | – | – | 2 h | 5.1 ×10⁻⁶ cm/s | 92 ×10⁻⁶ cm/s | – | – | –
6 | CNC(=O)c1cc(C#N)ccc1[C@@H]1C(C(C)=O)=C(C)N(c2cccc(C(F)(F)F)c2)C(=O)N1C [Example 13.1] | >2.17 h | 33 ×10⁻⁶ cm/s | 80 ×10⁻⁶ cm/s | – | – | – | > 50 µM | > 30 µM | (7% @ 10 μM)
7 | CC(=O)C1=C(C)N(c2cccc(C(F)(F)F)c2)C(=O)N(C)[C@@H]1c1ccc(C#N)cc1-c1ccc(=O)n(C)c1 [Example 16, 4-[(R)-5-Acetyl-3,6-dimethyl-2-oxo-1-(3-trifluoromethyl-phenyl)-1,2,3,4-tetrahydro-pyrimidin-4-yl]-3-(1-methyl-6-oxo-1,6-dihydro-pyridin-3-yl)-benzonitrile] | – | – | – | > 2.17 h | 12 ×10⁻⁶ cm/s | 120 ×10⁻⁶ cm/s | > 50 µM | > 30 µM | –
8 | CC(=O)C1=C(C)N(c2cccc(C(F)(F)F)c2)C(=O)N(C)[C@@H]1c1ccc(C#N)cc1-c1ccn(C)c(=O)c1 [Example 17, 4-[(R)-5-Acetyl-3,6-dimethyl-2-oxo-1-(3-trifluoromethyl-phenyl)-1,2,3,4-tetrahydro-pyrimidin-4-yl]-3-(1-methyl-2-oxo-1,2-dihydro-pyridin-4-yl)-benzonitrile] | – | – | – | > 2.17 h | 11 ×10⁻⁶ cm/s | 114 ×10⁻⁶ cm/s | – | – | –
